Fa, Retention_time and IC50 data for nine compounds are collected here from ChEMBL document CHEMBL3352148, “Docking based virtual screening and molecular dynamics study to identify potential monoacylglycerol lipase inhibitors” (Bioorg Med Chem Lett, 2014).

Series [1] can be described thus: Predicted human oral absorption (QikProp). The note with it: in silico.
Series [2] is described as follows: Retention time of the compound by UPLC-MS/MS method. Type of series: physicochemical.
Another series has as its target T1, Monoglyceride lipase (Homo sapiens, UniProt Q99685).
T1 sequence (Q99685 whole entry): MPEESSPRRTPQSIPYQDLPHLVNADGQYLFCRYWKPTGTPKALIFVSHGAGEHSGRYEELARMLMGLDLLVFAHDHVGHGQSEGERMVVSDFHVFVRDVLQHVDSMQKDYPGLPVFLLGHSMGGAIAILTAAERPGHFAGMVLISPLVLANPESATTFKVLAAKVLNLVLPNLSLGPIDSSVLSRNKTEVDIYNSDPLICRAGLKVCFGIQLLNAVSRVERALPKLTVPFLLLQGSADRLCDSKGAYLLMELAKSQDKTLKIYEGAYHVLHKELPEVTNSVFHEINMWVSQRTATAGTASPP
Description: Inhibition of human MAGL using 4-Nitrophenylacetate substrate incubated for 15 mins.

`O=C(NCc1ccc2c(c1)OCO2)[C@H]1CC(=O)N(c2ccc(OCc3ccccc3Cl)cc2)C1`: in series [1], the Fa was 100%. For `Cc1ccc(N2C[C@H](C(=O)NCc3n[nH]c(=O)c4ccccc34)CC2=O)cc1C`, the Fa in series [1] was 77.9%. The Retention_time in series [2] is on record as 1.68 min. `C[C@H]1CCCC[C@@H]1NC(=O)CC[C@@H]1NC(=O)N(CCc2c[nH]c3ccc(F)cc23)C1=O`: the Fa in series [1] is 90.7%. Besides, the half-maximal inhibitory concentration (IC50) on Monoglyceride lipase was more than 100 µM. The compound further had a Retention_time in series [2] of 2.26 min.

On to `Cc1cc(C)cc(NC(=O)[C@@H]2CC(=O)N(CCc3c[nH]c4ccc(F)cc34)C2)c1`, for which, in series [1], the Fa is 100%. In series [2], the Retention_time is listed as 1.55 min. For `O=C(Cn1nnc2ccccc21)Nc1ccc(-c2nc3ccccc3s2)cc1`, in that order: 100% and 1.72 min. With `O=C(COc1ccc2ccccc2c1)Nn1ccc2c(nnc3c(-c4ccc(F)cc4)cnn32)c1=O`, the Fa in series [1] is 100%. The compound also gave a 50% inhibitory concentration (IC50) at Monoglyceride lipase of more than 100 µM. This compound returned a Retention_time in series [2] of 1.29 min.

In series [2], `O=C(NCc1ccc2c(c1)OCO2)[C@@H]1CC(=O)N(c2ccc(OCc3ccccc3Cl)cc2)C1` showed a Retention_time of 2.01 min. Turning to `COc1ccc2cc(-c3nc4sc(C(=O)Nc5ccccc5OC)cc4c(=O)[nH]3)c(=O)oc2c1`, the Fa in series [1] is 80.4%.

In turn, `COc1nn(-c2ccc(NC(=O)OCc3ccccc3)c(C)c2)c(=O)o1` returned an IC50 against Monoglyceride lipase of 0.02 µM.
